Test results taken from US9487561B2, “Biologically active complex and its preparation” (HAMLET PHARMA AB, priority 2010, dated 2016).

Legend:
[1] = test system: A549 lung carcinoma cells; assay: cell death assay (trypan blue exclusion, ATP levels); type: cell-based, human; settings: 30 minutes pretreatment, HAMLET three hours
Protocol: (§1) Cells were detached from cell culture flasks with versen (0.2 g EDTA in 200 ml H2O and 800 ml PBS), washed with PBS and resuspended in serum-free RPMI-1640. HAMLET dissolved in PBS was incubated with cells (0.5×10^6/ml for A549, A498 and HeLa cells; 1×10^6/ml for Jurkat) at 37° C. FCS was added after 1 hour. Cell death was quantified by trypan blue exclusion (Chroma Gesellschaft Schmid & Co) or by measuring ATP levels (ATPlite Kit, PerkinElmer, Infinite 200, Tecan). Light images were captured using the HOLOMONITOR™ M2 digital holographic microscope (Phase Holographic Imaging AB, Lund, Sweden).
For studies with inhibitors, cells were pretreated for 30 minutes. Inhibitors used were Gadolinium chloride (GdCl3, 100 μM), Barium chloride (BaCl2, 1 mM), Ruthenium red (30 μM), tetrandrine (10 μM) and amiloride (1 mM), all from Sigma Aldrich. For p38 inhibition, SB202190 (20 μM, Sigma Aldrich) or BIRB796 (10 μM, Axon Medchem) dissolved in DMSO was used. The wells were washed twice with PBS and new medium with inhibitor was added. For RNA interference, FlexiTube siRNA Premixes against MAPK11 (SI00606053), MAPK14 (SI00300769) and All Star Negative Control siRNA (SI03650318) from Qiagen was used. A549 forward was transfected using 25 nM final siRNA concentration in 24-well plate. After 48 hours, knockdown was examined by Western blot (anti-p38, 1:1000, Cell Signaling) and RT-PCR (MAPK14, QT00079345, QIAGEN).
To examine if functional ion channels are important for the tumoricidal activity of HAMLET, A549 lung carcinoma cells in suspension were pretreated with the channel inhibitors for 30 minutes and exposed to increasing concentrations of HAMLET for three hours.
A549 cells were seeded to a density of 0.8-1.0×10^6 cells/well in RPMI without FCS. Different volumes of HAMLET/oleate and oleic acid solutions were added. The cells were incubated for 1 hour at 37° C. 5% CO2 for 1 hour before 50 μl of FCS (5% final concentration) were added to the wells. The cells were then further incubated for additional 2 hours before the viability were determined by trypan blue exclusion and ATP measurements.

[2] = test system: lung carcinoma, kidney carcinoma and lymphoma cells; assay: HAMLET-induced change in cell morphology (light microscopy, real-time imaging); type: cell-based; settings: light microscopy
Protocol: as §1
For live cell imaging, cells were pre-treated with SB202190 for 30 minutes, nuclei were stained with Hoechst 33342 (Invitrogen) and Alexa-Fluor 568-labeled HAMLET (10% labeled HAMLET, Molecular Probes) was added in serum-free medium. FCS was added after 1 hour. Fluorescence was detected with pinhole settings corresponding to 1 airy unit. The cells were kept at 37° C., 5% CO2 and examined unfixed by LSM510 DUO confocal microscopy (Carl Zeiss).
To examine if the HAMLET-induced change in carcinoma cell morphology was modified by the channel inhibitors, lung carcinoma, kidney carcinoma and lymphoma cells were exposed to HAMLET in the presence or absence of ion channel inhibitors and examined by light microscopy (FIG. 2C).
To determine if p38 signaling was involved in cell death, we inhibited p38α and p38β in lung and kidney carcinoma and Jurkat lymphoma cells with two small-molecule p38 inhibitors: SB202190, a highly specific pyridinyl-imidazole inhibitor; and BIRB796, a diaryl urea compound, which bears little structural similarity to SB202190 (Fabian et al., 2005, Nature Biotechnology 23: 329-336), ([…] and FIG. 12B). […] The effect of p38 inhibition on cell death was also observed by real-time confocal imaging of lung carcinoma cells exposed to fluorescently labeled HAMLET.

[3] = test system: potassium channels in A549, lung carcinoma cell lines; assay: FLUXOR potassium (K^+) channel assay, Thallium (Tl^+) indicator; type: cell-based, human; settings: HAMLET 35 μM; oleate 175 μM (5× the HAMLET concentration); peptides mixed with oleate and immediately added
Protocol: (§2) The FLUXOR™ potassium (K^+) channel assay was performed on the TECAN infinite F200 (Tecan Group, Switzerland), according to the manufacturer's instructions (Invitrogen). Briefly, this involved FLUXOR™ loading buffer (Hank's Balanced Saline Solution, (HBSS) buffered with 20 mM HEPES and pH adjusted to 7.4 with NaOH. POWERLOAD™ concentrate and water-soluble Probenecid were used respectively to enhance the dye solubility and retention, respectively. Media were removed from the cell plates manually, and 80 μL of loading buffer containing the FLUXOR™ dye mix was applied to each well. Once inside the cell, the nonfluorescent AM ester form of the FLUXOR™ dye is cleaved by endogenous esterases into a thallium-sensitive indicator. The dye was loaded for 60 minutes at room temperature and then removed with the supernatant. After washing with dye-free PBS buffer, a final volume of 80 μL assay buffer containing water-soluble probenecid was added. Cells received one of the following channel inhibitors: 3.3 μL per well of 30 mM amiloride, 3.0 μL of 32 mM BaCl2, 1.8 μL of 5.4 mM gadolinium, 3 μL 3.2 mM tetrandrine and 2.3 μL of 2.6 mM ruthenium red, and were then incubated at room temperature (23-25° C.) for 30 minutes to allow equilibration of the test compounds. Prior to injection, stimulation buffer was prepared from the chloride-free buffer and thallium reagents provided in the kit as well as HAMLET, to achieve a final added concentrations of 2 mM free Tl+ and 35 μM HAMLET after 1:5 dilution upon injection of the stimulus buffer onto cells that had been loaded with FLUXOR™ dye.
To distinguish Ca^2+ mobilization from intracellular stores from the influx of extracellular Ca^2+, EGTA was then added to the cell medium. […] K^+ fluxes across tumor cell membranes were subsequently quantified under the same experimental conditions, using the fluorophore FLUXOR™, which fluoresces after thallium has entered cells through K^+ channels.
Potassium channel activity was therefore measured in A549, lung carcinoma cell lines using an indicator, which emits fluorescence signal upon entering the cells via opened potassium channels, Thallium (Tl^+) indicator (FIG. 18).

tumor cells [4] = assay: ion fluxes (Ca^2+, K^+, Na^+) quantified by fluorometry; type: cell-based; settings: for fluxes of Ca^2+, K^+ and Na^+: FIG. 1B
Protocol: FIG. 1. […] (A, upper panels) Bright-field micrographs showing glass-adherent egg yolk vesicles before and after a 40-minute exposure to HAMLET, α-lactalbumin (HLA) or oleic acid (OA). Morphology was recorded by differential interference contrast microscopy. Scale bar […]. […] (A, lower panels) Effect of HAMLET on PMVs from lung carcinoma cells. PMVs on glass-bottom dishes were exposed to HAMLET, HLA or OA and stained with Nile red for confocal microscopy. […] As a control PMVs from healthy, differentiated cells on glass-bottom dishes were also exposed to HAMLET and stained with Nile red.
FIG. 7. Ion Fluxes. (A) Ion fluxes induced by HAMLET (35 μM) or it constituents (35 μM All-ala α-lactalbumin or 175 μM sodium oleate) were quantified by fluorometry, as described. […] (B) The global transcriptional response to HAMLET was studied by microarray and the top 3000 genes by variance visualized in a Heatmap. […] Darker bands=high expression, lighter bands=low.
as §2

[5] = test system: A549 lung carcinoma cells; assay: global transcriptional response, whole genome arrays (Affymetrix); type: cell-based, human; settings: Example 5, Affymetrix U219, adjusted p-value <0.05 and log 2-foldchange of 1
Protocol: For the microarray analysis with ion channel inhibitors, 200,000 A549 cells/well were allowed to adhere overnight on a 6-well plate. After 1 hour of HAMLET treatment, the cells were lysed and RNA was extracted using the RNeasy Mini Kit (QIAGEN). The samples were sent to AROS Applied Biotechnology (Århus, Denmark) for analysis. Data was preprocessed using RMA implemented in the free software packages “affy” as provided by R and Bioconductor (<www.r-project.org>). Differentially expressed genes were identified using empirically Bayes adjusted t-statistics and characterized using the Functional Annotation Clustering Tool in the Database for Annotation, Visualization and Integrated Discovery (DAVID), (Dennis et al., 2003 Genome Biology 4(5): P3) and Ingenuity Pathway Analysis (Ingenuity Systems). All microarray data were registered into NCBI's Gene Expression Omnibus (GEO) database (<www.ncbi.nlm.nih.gov/projects/geo>) with accession numbers GSE23772.
To understand the mechanisms of carcinoma cell death and the contribution of ion channel activation, the global transcriptional response to HAMLET was examined, using whole genome arrays. A549 lung carcinoma cells were exposed to HAMLET (21 μM) for one hour and cells pretreated with amiloride were compared to cells in medium alone. […] An unbiased global overview of transcription was obtained by performing a hierarchical clustering of the top 3000 genes by variance and was visualized in a heatmap (FIG. 2D and FIG. 13). Genes with empirical Bayes adjusted p-values <0.05 and log 2 fold changes >1 were considered differentially expressed and were functionally characterized using Database for Annotation, Visualization and Integrated Discovery, (Dennis et al., supra, 2003) and Ingenuity Pathway Analysis.
In total 12 RNA samples were generated (triplicate of control, oleic Acid, HAMLET, and oleate-treated) and hybridized to Affymetrix Whole Genome microarrays U219. […] For statistical analysis normalized data were linear model fitted and Empirical Bayesian analysis, coupled with p-value adjustment, performed.

tumor cells [6] = assay: Tumoricidal Activity of Oleate-HAMLET (cell death method of Example 1); type: cell-based
[7] = 35 μM All-ala α-lactalbumin or 175 μM sodium oleate, FIG. 7A

N.N.N.N.N.N.N.N.N.N.N.N.N.N.[Cl-].[Cl-].[Cl-].[Cl-].[Cl-].[Cl-].[O-2].[O-2].[Ru+3].[Ru+3].[Ru+4] [Ruthenium red, ammoniated ruthenium oxychloride]
effect of channel inhibitor on HAMLET-induced cell death [1]: no effect on viability
effect of ion channel inhibitor on HAMLET-induced change in cell morphology [2]: did not prevent the morphological changes

Beta: α-lactalbumin peptide, residue 41-80 (IVQNNDSTEYGLFQINNKIWCKDDQNPHSSNICNISCDKF; UniProt P00711 60-99, looked up, fragment)
potassium channel activity (fluorescence signal) [3]: did not open potassium channels

Alpha 1: α-lactalbumin peptide, residue 1-40 (EQLTKCEVFRELKDLKGYGGVSLPEWVCTTFHTSGYDTQA; UniProt P00711 20-59, looked up, fragment)
potassium channel activity (fluorescence signal) [3]: did not open potassium channels

Alpha 2: α-lactalbumin peptide, residue 81-123 (LDDDLTDDIMCVKKILDKVGINYWLAHKALCSEKLDQWLCEKL; UniProt P00711 100-142, looked up, fragment)
potassium channel activity (fluorescence signal) [3]: did not open potassium channels

CCCCCCCC/C=C\CCCCCCCC(=O)O [oleic acid, reference compound]
fluxes of Ca^2+, K^+ and Na^+ (tumor cells [4]): no effect
ion channel activating activity (tumor cells [4]; at concentrations relevant for the HAMLET complex): did not show ion channel activating activity
number of differentially expressed genes [5]: two

B1: α-lactalbumin: native α-lactalbumin purified from human milk (protein, UniProt P00709 20-142, looked up)
Alpha-lactalbumin: KQFTKCELSQLLKDIDGYGGIALPELICTMFHTSGYDTQAIVENNESTEYGLFQISNKLWCKSSQVPQSRNICDISCDKFLDDDITDDIMCAKKILDIKGIDYWLAHKALCTEKLEQWLCEKL
fluxes of Ca^2+, K^+ and Na^+ (tumor cells [4]): no effect

B2: Oleate-HAMLET: complex from EDTA treated alphalactalbumin converted on a column conditioned with sodium oleate (protein, UniProt P00709 20-142, looked up)
Alpha-lactalbumin: KQFTKCELSQLLKDIDGYGGIALPELICTMFHTSGYDTQAIVENNESTEYGLFQISNKLWCKSSQVPQSRNICDISCDKFLDDDITDDIMCAKKILDIKGIDYWLAHKALCTEKLEQWLCEKL
modifications: sodium oleate complex
tumoricidal activity compared with OA complex (tumor cells [6]): at least as tumoricidal as the OA complex
Trypan blue (tumor cells [6]; 0.5 mg/ml, Control 88): 1
ATP Activity (tumor cells [6]; 0.5 mg/ml, Control 100): 27%

B3: α-lactalbumin^all-ala mutant: partially unfolded α-lactalbumin with all cysteines mutated to alanine (SEQ ID NO: 1 / 2) (protein)
chain 1: KQFTKAELSQLLKDIDGYGGIALPELIATMFHTSGYDTQAIVENNESTEYGLFQISNKLWAKSSQVPQSRNIADISADKFLDDDITDDIMAAKKILDIKGIDYWLAHKALATEKLEQWLAEKL
chain 2: MKQFTKAELSQLLKDIDGYGGIALPELIATMFHTSGYDTQAIVENNESTEYGLFQISNKLWAKSSQVPQSRNIADISADKFLDDDITDDIMAAKKILDIKGIDYWLAHKALATEKLEQWLAEKL
K^+ fluxes (tumor cells [4]; [7]): comparable to HAMLET
Na^+ or Ca^2+ fluxes (tumor cells [4]; [7]): weaker
